Reference: US8304444B2, “Pyrazole carboxylic acid amides useful as microbiocides” (Syngenta Crop Protection, LLC, priority 2007, dated 2012)

Columns and labels:
Type in all cases: cell-based
[1] = system: Pseudocercosporella herpotrichoides var. acuformis; experiment: Action against Pseudocercosporella herpotrichoides var. acuformis (eyespot/cereals), fungal growth assay; conditions: Oculimacula yallundae; 0.002% active ingredient, PDB broth, 24° C., photometric after 72 hrs
Protocol: (§1) Action Against Pseudocercosporella herpotrichoides var. acuformis (Eyespot/Cereals)—Fungal Growth Assay Conidia of the fungus from cryogenic storage are directly mixed into nutrient broth (PDB potato dextrose broth). After placing a (DMSO) solution of the test compounds (0.002% active ingredient) into a microtiter plate (96-well format) the nutrient broth containing the fungal spores is added. The test plates are incubated at 24° C. and the inhibition of growth is determined photometrically after 72 hrs. The activity of a compound is expressed as fungal growth inhibition (0=no growth inhibition, ratings of 80% to 99% mean good to very good inhibition, 100%=complete inhibition). Compounds 1.01, 1.14 and 1.15 show very good activity in this test (≦30% inhibition).

Septoria tritici = experiment: Action against Septoria tritici, fungal growth assay; conditions: Zymoseptoria tritici; 0.002% active ingredient, PDB broth, 24° C., photometric after 72 hrs
Protocol: as §1, with “Septoria tritici—Fungal” for “Pseudocercosporella herpotrichoides var. acuformis (Eyespot/Cereals)—Fungal”, “1.07, 1.14, 1.15, 1.76” for “1.14”, “2.01” for “1.15”, “(≦80%” for “(≦30%”

Monographella nivalis = experiment: Action against Monographella nivalis (snow mould), fungal growth assay; conditions: 0.002% active ingredient, PDB broth, 24° C., photometric after 72 hrs
Protocol: as §1, with “Monographella nivalis (Anamorph: Fusarium nivale, Microdochium nivale; Snow Mould)—Fungal” for “Pseudocercosporella herpotrichoides var. acuformis (Eyespot/Cereals)—Fungal”, “DMSO-solution” for “(DMSO) solution”, “measured” for “determined”, “hrs” for “hrs. The activity of a compound is expressed as fungal growth inhibition”, “Compounds” for “Compounds 1.01,”, “(≦80%” for “(≦30%”

Mycosphaerella arachidis = experiment: Action against Mycosphaerella arachidis, fungal growth assay; conditions: 0.002% active ingredient, PDB broth, 24° C., photometric after 6-7 days
Protocol: Action Against Mycosphaerella arachidis (Early Leaf Spot of Groundnut; Cercospora arachidicola [anamorph])—Fungal Growth Assay Conidia of the fungus from cryogenic storage are directly mixed into nutrient broth (PDB potato dextrose broth). After placing a (DMSO) solution of the test compounds (0.002% active ingredient) into a microtiter plate (96-well format) the nutrient broth containing the fungal spores is added. The test plates are incubated at 24° C. and the inhibition of growth is measured photometrically after 6-7 days. The activity of a compound is expressed as fungal growth inhibition (0=no growth inhibition, ratings of 80% to 99% mean good to very good inhibition, 100%=complete inhibition). Compounds 1.01, 1.14 and 1.15 show very good activity in this test (≦80% inhibition). Compounds 1.07 and 2.01 show good activity in this test (≦50% inhibition).

## COC(c1ccc(Cl)cc1Cl)C(C)NC(=O)c1cn(C)nc1C(F)F (centres unmarked) [Compound 1.14, 3-difluoromethyl-1-methyl-1H-pyrazole-4-carboxylic acid [2-(2,4-dichlorophenyl)-2-methoxy-1-methyl-ethyl]-amide]
[1]
  inhibition at 0.002 % strength: ≤ 30%
Septoria tritici
  inhibition at 0.002 % strength: ≤ 80%
Monographella nivalis
  inhibition at 0.002 % strength: ≤ 80%
Mycosphaerella arachidis
  inhibition at 0.002 % strength: ≤ 80%

## CONC(c1ccc(Cl)cc1Cl)C(C)NC(=O)c1cn(C)nc1C(F)F (centres unmarked) [Compound 1.76, 3-difluoromethyl-1-methyl-1H-pyrazole-4-carboxylic acid [2-(2,4-dichlorophenyl)-2-methoxyamino-1-methyl-ethyl]-amide]
Septoria tritici
  inhibition at 0.002 % strength: ≤ 80%
